Test systems include PC-3; OVCAR-8; MDA-N; SK-MEL-28; UACC-62; M14; HOP-62; SNB-19; NCI-H226; U-251; 786-0; MDA-MB-435; OVCAR-4; HCT-116; HCC 2998; NCI-H460; ACHN; UO-31; SK-MEL-5; OVCAR-3.
What all share (experiment): growth of human tumour cells (NCI), 48 h

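Briefly, cells in 96-well plates were exposed to five compound concentrations for 48 h, and endpoints were estimated by linear interpolation. GI50: concentration for 50% inhibition of growth.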 Active and inactive are the calls of the source. Rule as the data show it: active = GI50 up to about 1.1 µM and inactive = higher.

As for `COc1ccc(-c2cn3c(n2)sc2cc(C)ccc23)cc1`, the GI50 in the assay on PC-3 was 14.8 µM (inactive); in the assay on OVCAR-8, 8.17 µM (inactive); in the assay with MDA-N it was 5.08 µM (inactive); with SK-MEL-28, 38.3 µM (inactive); in the assay on UACC-62, 12.3 µM (inactive); with M14, 26.1 µM (inactive). The GI50 with HOP-62 is 20.2 µM (inactive); in the assay on SNB-19, 12.5 µM (inactive); in the assay on NCI-H226, 15.2 µM (inactive); with U-251, 4.13 µM (inactive); with 786-0, 18.3 µM (inactive); in the assay on MDA-MB-435, 5.28 µM (inactive). In addition, the GI50 in the assay with OVCAR-4 was 10.9 µM (inactive); in the assay on HCT-116, 13.2 µM (inactive); in the assay on HCC 2998 it was 12.5 µM (inactive); in the assay with NCI-H460 it was 20.7 µM (inactive); in the assay on ACHN, 28.4 µM (inactive); with UO-31 it was 42.3 µM (inactive). The GI50 in the assay on SK-MEL-5 was 3.65 µM (inactive); in the assay with OVCAR-3 it was 7.14 µM (inactive).

Take `CC(=O)OC(C)C1C2=C(C(=O)CC1(C)O)C(=O)c1c(ccc(-c3ccc4c(c3O)C(=O)C3=C(C4=O)C(C(C)OC(C)=O)C(C)(O)CC3=O)c1O)C2=O` (stereo not given): the GI50 in the assay with PC-3 was 3.1 µM (inactive); with OVCAR-8, 2.45 µM (inactive); in the assay with MDA-N, 3.15 µM (inactive); in the assay on SK-MEL-28, 2.12 µM (inactive); in the assay with UACC-62 it was 1.69 µM (inactive); in the assay with M14, 2.11 µM (inactive). Besides, the GI50 with HOP-62 was 18.5 µM (inactive); in the assay on SNB-19, 11.7 µM (inactive); with NCI-H226 it was 9.33 µM (inactive); in the assay on U-251 it was 1.72 µM (inactive); with 786-0, 1.83 µM (inactive); in the assay on MDA-MB-435 it was 2.14 µM (inactive). Besides, the GI50 in the assay with OVCAR-4 was 2.24 µM (inactive); with HCT-116, 0.521 µM (active); in the assay on HCC 2998, 10.7 µM (inactive); with NCI-H460, 6.58 µM (inactive); with ACHN, 1.73 µM (inactive); with UO-31 it was 3.35 µM (inactive). Besides, the GI50 with SK-MEL-5 is 3.19 µM (inactive); in the assay with OVCAR-3 it was 2.2 µM (inactive).

With `CC1(CNCc2ccccc2)CC(CCc2ccccc2)N(C(=O)c2ccc([N+](=O)[O-])cc2)C1Cc1ccc(O)cc1` (stereo not given), the GI50 is 10.7 µM (inactive) in the assay on PC-3; 14.4 µM (inactive) in the assay with OVCAR-8; 12.3 µM (inactive) with MDA-N; 31 µM (inactive) in the assay with SK-MEL-28; 13.1 µM (inactive) in the assay with UACC-62; 13.7 µM (inactive) in the assay with M14. In addition, the GI50 with HOP-62 is 15.8 µM (inactive); in the assay on SNB-19 it was 14.7 µM (inactive); in the assay on NCI-H226, 9.93 µM (inactive); with U-251, 12.3 µM (inactive); with 786-0, 11.8 µM (inactive); with MDA-MB-435, 14.2 µM (inactive). In addition, the GI50 in the assay on OVCAR-4 is 9.91 µM (inactive); with HCT-116 it was 10.4 µM (inactive); in the assay on HCC 2998, 13.1 µM (inactive); in the assay on NCI-H460 it was 14 µM (inactive); with ACHN it was 12 µM (inactive); in the assay with UO-31 it was 11.3 µM (inactive). For the same molecule, the values for the GI50 with SK-MEL-5 and with OVCAR-3 were 5.35 µM (inactive) and 12.1 µM (inactive), respectively.

In the case of `COc1cc(NCc2ccc3n2-c2ccccc2OC3)cc(OC)c1OC`, the GI50 with PC-3 is 22.8 µM (inactive); in the assay on OVCAR-8, 31 µM (inactive); in the assay on MDA-N, 21.1 µM (inactive); in the assay on SK-MEL-28, 38.3 µM (inactive); in the assay with UACC-62 it was 19 µM (inactive); in the assay with M14 it was 31 µM (inactive). Moreover, the GI50 with HOP-62 is 43.5 µM (inactive); with SNB-19 it was 69 µM (inactive); in the assay with NCI-H226, 28.8 µM (inactive); with U-251 it was 18.4 µM (inactive); in the assay on 786-0, 47.1 µM (inactive); in the assay with MDA-MB-435 it was 14 µM (inactive). The GI50 with OVCAR-4 is 16.1 µM (inactive); in the assay on HCT-116 it was 27.8 µM (inactive); with HCC 2998 it was 16.1 µM (inactive); in the assay with NCI-H460, 30.1 µM (inactive); with ACHN, 30.1 µM (inactive); in the assay with UO-31, 16.8 µM (inactive). Also, the GI50 was 15.6 µM (inactive) in the assay on SK-MEL-5 and 28.6 µM (inactive) with OVCAR-3.

Take `CC1(C)CCC(=O)NC1CC(=O)CC1NC(=O)CCC1(C)C` (stereo not given): the GI50 in the assay on PC-3, in the assay with OVCAR-8, in the assay on MDA-N, in the assay with SK-MEL-28, in the assay with UACC-62 and in the assay with M14 was > 100 µM (inactive) each time. The GI50 in the assay on HOP-62, with SNB-19, in the assay with NCI-H226, with U-251, with 786-0 and with MDA-MB-435 was > 100 µM (inactive) throughout. The GI50 in the assay on OVCAR-4, in the assay with HCT-116, with HCC 2998, in the assay with NCI-H460, in the assay on ACHN and with UO-31 was > 100 µM (inactive) throughout. The GI50 with SK-MEL-5 and in the assay on OVCAR-3 was > 100 µM (inactive) each time.

Take `O=C1/C(=N/c2ccccc2)Oc2cc(O)ccc21`: the GI50 with PC-3, with OVCAR-8, in the assay with MDA-N, with SK-MEL-28, in the assay with UACC-62 and in the assay on M14 was > 100 µM (inactive) in each case. Also, the GI50 in the assay on HOP-62, in the assay with SNB-19, in the assay with NCI-H226, in the assay on U-251, in the assay with 786-0 and in the assay on MDA-MB-435 was > 100 µM (inactive) each time. Further, the GI50 in the assay with OVCAR-4, in the assay with HCT-116, in the assay on HCC 2998, with NCI-H460, with ACHN and with UO-31 was > 100 µM (inactive) in each case. Also, the GI50 with SK-MEL-5 and with OVCAR-3 was > 100 µM (inactive) in each case.

Take `CCN1C(=O)c2ccccc2C1(O)c1ccc(Cl)cc1` (stereo not given): the GI50 in the assay with PC-3 was 24.7 µM (inactive); with OVCAR-8, 52.8 µM (inactive); in the assay on MDA-N, > 100 µM (inactive); with SK-MEL-28, 94 µM (inactive); in the assay on UACC-62, 79.1 µM (inactive); in the assay on M14, 59.4 µM (inactive). The GI50 with HOP-62 is 78 µM (inactive); in the assay on SNB-19, 20.7 µM (inactive); with NCI-H226, 16.8 µM (inactive); in the assay on U-251, 64.9 µM (inactive); in the assay with 786-0, 76.9 µM (inactive); in the assay with MDA-MB-435, 83.2 µM (inactive). Besides, the GI50 in the assay with OVCAR-4 was > 100 µM (inactive); in the assay on HCT-116, 37.7 µM (inactive); in the assay with HCC 2998, > 100 µM (inactive); with NCI-H460, 89.7 µM (inactive); in the assay on ACHN it was 46.5 µM (inactive); in the assay with UO-31 it was 53.5 µM (inactive). The GI50 was 31.6 µM (inactive) in the assay with SK-MEL-5 and 31.1 µM (inactive) with OVCAR-3.

Source of the values: ChEMBL document CHEMBL1201862, “PubChem BioAssay data set” (2004).
